Values quoted from earlier work as cited in patent publication US11304902B2, “Pharmaceutical compositions, preparation and uses thereof” (CURADIGM SAS, priority 2014, dated 2022).

Tested on: CYP1A
Conditions: human CYP enzyme

COc1ccc(-c2cc(=O)c3c(O)cc(O)cc3o2)cc1 [Acacetin, acacetin]
role towards CYP1A (substrate / inhibitor / inducer): Inhibitor
